Holding throughout (assay type): cell-based, human
For one experiment, the system named is THP-1-HMGB1-Lucia cells. As to the kind of experiment: TBZ-induced necroptosis screening by HMGB1-luciferase release. The settings on record: 8 h, read-out: % Inhibition (luciferase activity relative to TBZ-treated supernatant); for activity at 20 µM: Homo sapiens. As to the method: (§1) To identify potential inhibitors of the necroptosis pathway targeting MLKL or the process of p-MLKL pore formation on the membrane, we screened a library of 2150 compounds, including FDA-approved drugs and those in phase 1–3 clinical trials, using THP-1-HMGB1-Lucia™ cells expressing the HMGB1-luciferase fusion protein. The cells were treated with a necroptosis-inducing mixture containing TNF-α, BV6, and Z-VAD-FMK (TBZ) in addition to the compound library (Fig. 1A). The supernatants were harvested to measure luciferase activities for necroptosis. The luciferase activities of cell supernatants treated with TBZ alone were considered as the maximum release (100%) of HMGB1-luciferase. NEC-1, a known RIP1 inhibitor used in both humans and mice, was used as a positive control. […] Next, we performed a propidium iodide (PI) uptake assay to exclude cytotoxic compounds using THP-1 cells. Then, we selected candidate molecules that were arbitrarily less than 30% of those treated with TBZ. […] Next, the inhibition levels of p-MLKL were tested to select MLKL-targeting molecules (Figs. 1C and S1A). Compounds that reduced p-MLKL levels to less than 30% of TBZ-treated controls were considered as potential inhibitors of MLKL phosphorylation. Conversely, compounds that maintained p-MLKL levels above 70% were selected because they are presumed to prevent the formation of pores in the plasma membrane by interfering with oligomerization.
A clinical chemical library containing 2150 items (Korea Chemical Bank, South Korea), under phase 1–3 clinical trials, including FDA-approved drugs, was used to screen for necroptosis inhibitors. Each chemical was dissolved in DMSO and diluted to 20 μM in DPBS for treatment.
THP-1-HMGB1-Lucia^TM cells were pretreated with the pan-caspase inhibitor Z-VAD-FMK (50 μM, tlrl-vad, InvivoGen) and each chemical for 1 h, and followed by TNF-α (100 ng/mL, TNF0501, NKMAXBio, Seongnam, S. Korea) and Smac mimetic BV6 (10 μM, B1332-5, Biovision, Santa Clara, CA, USA), termed TBZ mixture, were added for necroptosis screening. The RIP1 inhibitor, NEC-1 (1846, Biovision), and MLKL inhibitor, NSA (432531-71-0, Sigma-Aldrich, St. Louis, MO, USA), were used as controls. The cell supernatant was harvested to measure HMGB1 levels using a luciferase assay kit (E1500, Promega, Madison, WI, USA) by a luminometer (Centro XS3 LB 960, Berthold Technologies, Bad Wildbad, Germany). The inhibition of necroptosis (%) was calculated as: (sample-treated data – medium-only data) × 100/(TBZ-treated data – medium-only data). APO [STK088477, (6aS)-6-methyl-5,6,6a,7-tetrahydro-4H-dibenzo[de,g]quinoline-10,11-diol, Vitas-M Laboratory, Hong Kong] was stored at −70 °C after aliquoting with DMSO. APO was used after dilution in DPBS. APO is susceptible to auto-oxidation in solution in the presence of light and air. DPBS containing 5 mM DTT was used for Re-APO. Ox-APO was prepared by incubating APO in DPBS at 25 °C for 24 h in the presence of light and air, followed by removal of any precipitate by filtration through 0.2 μm.

The subject of another experiment is p-MLKL and p-RIP1. As to the kind of experiment: Western blot of cytosol and membrane fractions. As to conditions: THP-1, TBZ, 20 μM. As to the method: (§2) The cells were harvested and lysed in 1× RIPA buffer (R4100-010, GenDEPOT, Katy, TX, USA) containing protease (P3100-001, GenDEPOT) and phosphatase (1862495, Thermo Fisher Scientific) inhibitors. WCLs were then centrifuged at 20,000×g for 30 min at 4 °C and subjected to non-reducing or reducing 8–12% SDS-PAGE gel electrophoresis. The membrane was blocked with 5% non-fat milk in TBS and probed with antibodies. Antibodies to hMLKL (14993S), mMLKL (97705S), phospho-hMLKL (Ser358) (91689S), phospho-mMLKL (Ser345) (37333S), phospho-hRIP1 (Ser166) (65746S), mRIP1 (3493S), phospho-mRIP1 (Ser321) (38662S), phospho-hRIP3 (Ser227) (93654), mRIP3 (95702S), p-mRIP3 (Thr231/Ser232) (91702S), and LDH (2012S) (Cell Signaling Technology, Danvers, MA, USA), and GAPDH (LF-PA0018, Abfrontier, S. Korea), hRIP1 (ab72139, Abcam, Cambridge, UK), hRIP3 (sc-135170, Santa Cruz Biotechnology, Dallas, TX, USA), HMGB1 (ab78923, Abcam), and LAMP1 (ab24170, Abcam) antibodies were used.
Cell membrane fractionation was performed to determine whether MLKL oligomers were retained in the cell membrane fraction. Briefly, THP-1 cells were harvested and resuspended in 20 mM TBS (pH 7.4) containing 10 mM KCl, 1 mM MgCl2, protease inhibitor (P3100-001, GenDEPOT), and phosphatase inhibitor (1862495, Thermo Fisher Scientific). The cell suspension was passed through a 22-gauge needle and centrifuged at 20,000×g for 15 min and stored as the cytoplasmic fraction. The pellet was resuspended in lysis buffer and stored as the crude membrane fraction.
(§3) Fig. S1 Assessment of p-MLKL inhibition to identify MLKL-targeting molecules. (A) Quantification graph corresponding to Fig. 1C. THP-1 cells were treated with TBZ in the presence of secondarily selected compounds (S1–S72, 20 μM). Whole-cell lysates (WCLs) were collected and subjected to Western blot analysis under reducing conditions using antibodies against p-MLKL, MLKL, and GAPDH. The p-MLKL/MLKL ratio was quantified and compared to that of TBZ-treated cells. Data represent the mean of three independent experiments. (B) Quantification graph corresponding to Fig. 1D. THP-1 cells were treated with TBZ in the presence of third-round selected compounds (S1–S62, 20 μM). Cytosolic and membrane fractions were collected and analyzed by Western blot under reducing conditions. The levels of p-MLKL and p-RIP1 were normalized to LDH (cytosolic marker) and LAMP1 (membrane marker), respectively. Quantified ratios were compared to those of TBZ-treated cells (n = 3 independent experiments).
On the technique in general: Immunoblotting shows a protein as a band on a membrane.

In the next experiment the test system is p-MLKL. As to the kind of experiment: Western blot of phosphorylated MLKL in whole cell lysates. As to conditions: Homo sapiens, read-out: p-MLKL/MLKL ratio relative to TBZ-treated cells (% Value). As to the method:
as §1, §2
as §3, with “THP-1 cells were treated with TBZ in the presence of secondarily selected compounds (S1–S72, 20 μM).” left out, “THP-1 cells were treated with TBZ in the presence of third-round selected compounds (S1–S62, 20 μM).” left out

Setting [1] is: 20 μM compound with TBZ, TBZ alone = 100, DPBS = 0.
The mark [2] stands for this setting: THP-1, TBZ and 20 μM compound, 8 h, whole cell lysates.

Structures can show the parent of a compound that is named as a salt. Where two headings read alike, the source gives them in different places.

For `CN1CCN(c2ccc(Nc3c4ccccc4nc4ccccc34)cc2)CC1` [S1, JP-1302], the activity with THP-1-HMGB1-Lucia cells (setting [1]) stood at 0.4%. The RIP1 phosphorylation entry in the experiment with p-MLKL and p-RIP1 was “seemed to inhibit”.
With `COc1cc2ncnc(Nc3cccc(Cl)c3)c2cc1OC` [S3, Tyrphostin], the figures for the activity at 20 µM in the experiment on THP-1-HMGB1-Lucia cells (setting [1]) and in the experiment with p-MLKL (setting [2]) were 7.5% and 70%, respectively. The “effect on p-MLKL levels in both cytosolic and membrane fractions” value with p-MLKL and p-RIP1 was “almost no effect”.
With `CCCCC1C(=O)N(c2ccccc2)N(c2ccc(O)cc2)C1=O` (stereo not drawn) [S4, Oxyphenbutazone], the activity at 20 µM in the experiment with THP-1-HMGB1-Lucia cells (setting [1]) was 0%; with p-MLKL (setting [2]) it was 38%.
The like results for `Cc1ccc(Nc2nccc(N(C)c3ccc4c(C)n(C)nc4c3)n2)cc1S(N)(=O)=O` [S10, Pazopanib] were, in that order, 9.4% and 86%.
On to `CC(=O)Oc1ccccc1C(=O)Nc1ncc([N+](=O)[O-])s1` [S15, Nitazoxanide], for which the activity at 20 µM in the experiment with THP-1-HMGB1-Lucia cells (setting [1]) worked out at 1.2%; with p-MLKL (setting [2]) it was 100%. Moreover, the “effect on p-MLKL levels in both cytosolic and membrane fractions” value in the experiment on p-MLKL and p-RIP1 is “almost no effect”.
Take `CC1(C)CC[C@]2(C(=O)O)CC[C@]3(C)[C@H](C(=O)C=C4[C@@]5(C)C=C(C#N)C(=O)C(C)(C)[C@@H]5CC[C@]43C)[C@@H]2C1` [S16, Bardoxolone]: the activity at 20 µM in the experiment on THP-1-HMGB1-Lucia cells (setting [1]) and in the experiment on p-MLKL (setting [2]) was 0% throughout.
For the compound `Cc1ccc(C(=O)Nc2ccc(CN3CCN(C)CC3)c(C(F)(F)F)c2)cc1C#Cc1cnc2cccnn12` [S17, Ponatinib], the activity at 20 µM in the experiment on THP-1-HMGB1-Lucia cells turned out to be 4.5%; in the experiment on p-MLKL (THP-1, 8 h), 2%.
On to `O=C(Nc1ccc(Br)cc1)c1cccc(S(=O)(=O)Nc2ccc(Br)cc2)c1` [S19, N-(4-Bromophenyl)-3-[[(4-bromophenyl)amino]sulfonyl]benzamide], for which the activity at 20 µM with THP-1-HMGB1-Lucia cells (setting [1]) came out at 5.3%; in the experiment with p-MLKL (setting [2]), 55%.
On the same counts, the results for `Cc1ncc(-c2ccnc(Nc3ccc(S(C)(=O)=O)cc3)n2)n1C(C)C` [S28, AZD 5438] are 0% and 55%.
On the same counts, the results for `CC(C)(C)c1nc(-c2cccc(NS(=O)(=O)c3c(F)cccc3F)c2F)c(-c2ccnc(N)n2)s1` [S31, Dabrafenib] are 4.5% and 0%.
The like results for `C=C1C(=O)O[C@@H]2/C=C(\C)CC/C=C(\C)CC[C@@H]12` [S35, Costunolide] were, in that order, 9% and 30%.
Take `C=C1C(=O)O[C@H]2[C@H]1CC/C(C)=C/CC[C@@]1(C)O[C@@H]21` [S38, Parthenolide]: the activity at 20 µM stood at 0% with THP-1-HMGB1-Lucia cells (setting [1]) and 40% with p-MLKL (setting [2]).
The like results for `COc1cc2nccc(Oc3ccc(NC(=O)Nc4cc(C)on4)c(Cl)c3)c2cc1OC` [S46, Tivozanib] were, in that order, 9% and 18%.
Turning to `O=C1c2c(O)ccc(O)c2C(=O)c2c(NCCNCCO)ccc(NCCNCCO)c21` [S58, Mitoxantrone hydrochloride], the activity at 20 µM with THP-1-HMGB1-Lucia cells (setting [1]) was 7.6%; in the experiment with p-MLKL (setting [2]), 39%.
`COc1cccc2c1C(=O)c1c(O)c3c(c(O)c1C2=O)C[C@@](O)(C(C)=O)C[C@@H]3O[C@H]1C[C@H](N)[C@H](O)[C@H](C)O1` [S61, Daunorubicin]: the activity at 20 µM in the experiment on THP-1-HMGB1-Lucia cells was found to be 6%.
Regarding `COCCOC(=O)C1=C(C)NC(C)=C(C(=O)OC/C=C/c2ccccc2)C1c1cccc([N+](=O)[O-])c1` (stereo not drawn) [S63, Cilnidipine], in the experiment with THP-1-HMGB1-Lucia cells (setting [1]), the activity at 20 µM was found to be 11%.
Regarding `COc1ccc(CN2CCN(C(c3ccc(F)cc3)c3ccc(F)cc3)CC2)c(OC)c1OC` [S64, Lomerizine hydrochloride], in the experiment on THP-1-HMGB1-Lucia cells (setting [1]), the activity turned out to be 5.3%.
As to `CC[C@@]1(O)C(=O)OCc2c1cc1n(c2=O)Cc2cc3c(CN(C)C)c(O)ccc3nc2-1` [S65, Topotecan hydrochloride], the activity at 20 µM in the experiment with THP-1-HMGB1-Lucia cells (setting [1]) is 5.2%.
Still for that read-out and setting: next, `COc1cccc2c1C(=O)c1c(O)c3c(c(O)c1C2=O)C[C@@](O)(C(=O)CO)C[C@@H]3O[C@H]1C[C@H](N)[C@H](O)[C@H](C)O1` [S66, Doxorubicin]: 8.6%; `O=S(=O)(c1cccc2cnccc12)N1CCCNCC1` [S68, Fasudil hydrochloride]: 6%; `O=C(N[C@H](CO)[C@H](O)c1ccc([N+](=O)[O-])cc1)C(Cl)Cl` [S69, Chloramphenicol]: 0%.
Still for that read-out and setting: next, `CN(C)CCOC(c1ccccc1)c1ccccc1` [S70, Diphenhydramine]: 19.1%.
Take `CCCc1c(-c2ccc(O)cc2)nn(-c2ccc(O)cc2)c1-c1ccc(O)cc1` [S71, PPT]: the activity in the experiment on THP-1-HMGB1-Lucia cells (setting [1]) turned out to be 1.5%.
Turning to `O=C(Nc1ccc([N+](=O)[O-])cc1Cl)c1cc(Cl)ccc1O` [S72, Niclosamide], the values for the activity at 20 µM with THP-1-HMGB1-Lucia cells (setting [1]) and in the experiment with p-MLKL (setting [2]) were 0.9% and 35%, respectively.
For the compound JTE 013 [S11], the activity in the experiment on THP-1-HMGB1-Lucia cells (setting [1]) turned out to be 5.8%.

The values above are taken from paper PMC12518639, “Apomorphine is a novel necroptosis inhibitor targeting mixed lineage kinase domain-like protein oligomerization” (Cell Death Discovery, 2025).
